Literature values, collected in US11497789B2, “Formulations of vancomycin” (SciDose Pharma LLC, priority 2016, dated 2022).

Details: after reconstitution of the lyophilized product

CN[C@H](CC(C)C)C(=O)N[C@H]1C(=O)N[C@@H](CC(N)=O)C(=O)N[C@H]2C(=O)N[C@H]3C(=O)N[C@H](C(=O)N[C@H](C(=O)O)c4cc(O)cc(O)c4-c4cc3ccc4O)[C@H](O)c3ccc(c(Cl)c3)Oc3cc2cc(c3O[C@@H]2O[C@H](CO)[C@@H](O)[C@H](O)[C@H]2O[C@H]2C[C@](C)(N)[C@H](O)[C@H](C)O2)Oc2ccc(cc2Cl)[C@H]1O [Vancomycin]
time stable in water after reconstitution: approximately 24 hours
